Laboratory results from patent publication US12624067B2, “Cyclic peptide, cell scaffold material, cell separating material, and medium” (FUJIFILM Corporation, priority 2019, dated 2026).
Numbered stars: 1 amine (or outer) side, 2 acyl side, 3 side chain; on linkers, the order of the positions; unused ones are H or OH. Bridge positions count the residues as written; N and C are the ends. Square brackets hold non-standard residues; d marks the D form. Peptide text beside a SMILES is read from it. Pen = CC(C)(S)[C@H](N)C(=O)O; hCys = N[C@@H](CCS)C(=O)O; Orn = NCCC[C@H](N)C(=O)O; X1 = O=C(C[*:1])[*:2]; X2 = O=C(C[*:2])[*:1]

Experiments:
human integrin αvβ5 = human integrin αvβ5 (Homo sapiens, UniProt P06756+P18084); experiment: Evaluation of integrin binding property (surface plasmon resonance, Biacore 3000, immobilized cyclic peptide); conditions: peptide immobilized on CM5 sensor chip; human integrin αvβ5 30-1,000 nM, 25° C., HEPES buffer with 5 mM magnesium chloride; read-out: Integrin binding property (dissociation constant)
Chain of human integrin αvβ5 (P06756 31-889 limits assumed): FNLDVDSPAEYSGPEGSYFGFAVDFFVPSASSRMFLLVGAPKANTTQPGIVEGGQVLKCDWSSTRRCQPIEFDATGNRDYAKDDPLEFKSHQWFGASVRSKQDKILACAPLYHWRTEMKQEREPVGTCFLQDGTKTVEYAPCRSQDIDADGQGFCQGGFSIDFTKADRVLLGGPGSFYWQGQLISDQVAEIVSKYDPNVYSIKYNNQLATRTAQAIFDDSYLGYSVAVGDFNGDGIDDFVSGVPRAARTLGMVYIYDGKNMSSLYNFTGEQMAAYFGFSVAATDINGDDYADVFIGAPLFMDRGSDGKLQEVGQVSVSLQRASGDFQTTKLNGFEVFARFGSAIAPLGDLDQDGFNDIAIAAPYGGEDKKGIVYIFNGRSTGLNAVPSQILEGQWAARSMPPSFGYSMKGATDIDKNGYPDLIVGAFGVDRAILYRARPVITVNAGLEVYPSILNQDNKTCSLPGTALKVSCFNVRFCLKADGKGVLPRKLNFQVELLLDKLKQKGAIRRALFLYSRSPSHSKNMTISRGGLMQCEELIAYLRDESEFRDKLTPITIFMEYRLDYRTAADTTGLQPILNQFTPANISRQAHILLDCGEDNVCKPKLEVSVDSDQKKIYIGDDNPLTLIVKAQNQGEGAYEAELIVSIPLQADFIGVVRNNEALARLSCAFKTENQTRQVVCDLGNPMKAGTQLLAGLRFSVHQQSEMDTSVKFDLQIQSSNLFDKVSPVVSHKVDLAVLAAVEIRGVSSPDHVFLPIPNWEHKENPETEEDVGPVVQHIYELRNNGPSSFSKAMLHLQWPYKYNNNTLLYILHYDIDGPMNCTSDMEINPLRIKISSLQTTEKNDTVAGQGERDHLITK
Chain of human integrin αvβ5 (P06756 891-1048 partner limits assumed): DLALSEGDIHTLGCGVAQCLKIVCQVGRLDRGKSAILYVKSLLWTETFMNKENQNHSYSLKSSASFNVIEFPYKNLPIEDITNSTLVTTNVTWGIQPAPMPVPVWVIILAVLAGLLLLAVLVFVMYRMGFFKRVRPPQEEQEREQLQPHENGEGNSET
Chain of human integrin αvβ5 (P18084 24-799): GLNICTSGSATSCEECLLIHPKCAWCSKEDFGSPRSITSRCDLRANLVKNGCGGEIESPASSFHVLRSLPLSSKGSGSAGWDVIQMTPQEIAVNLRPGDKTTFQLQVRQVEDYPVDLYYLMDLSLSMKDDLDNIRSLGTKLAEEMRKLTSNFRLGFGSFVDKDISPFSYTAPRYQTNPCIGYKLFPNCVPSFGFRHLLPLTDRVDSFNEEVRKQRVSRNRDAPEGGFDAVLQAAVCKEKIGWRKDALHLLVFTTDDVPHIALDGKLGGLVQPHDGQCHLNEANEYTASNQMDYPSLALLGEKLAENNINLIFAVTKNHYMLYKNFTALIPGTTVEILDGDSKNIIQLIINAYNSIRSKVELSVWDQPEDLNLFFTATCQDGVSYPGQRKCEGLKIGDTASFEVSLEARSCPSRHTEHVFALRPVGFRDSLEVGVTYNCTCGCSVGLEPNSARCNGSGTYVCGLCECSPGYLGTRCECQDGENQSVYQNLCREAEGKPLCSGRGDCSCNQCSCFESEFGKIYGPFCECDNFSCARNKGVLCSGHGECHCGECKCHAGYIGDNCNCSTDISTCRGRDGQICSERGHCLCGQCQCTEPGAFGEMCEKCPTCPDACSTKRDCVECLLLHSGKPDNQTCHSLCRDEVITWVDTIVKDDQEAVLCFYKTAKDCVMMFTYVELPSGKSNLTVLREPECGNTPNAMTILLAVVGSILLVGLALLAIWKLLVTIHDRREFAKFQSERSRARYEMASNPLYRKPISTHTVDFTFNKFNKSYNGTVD
Method: A commercially available CM5 sensor chip (a carboxymethyl dextran introduction type, manufactured by GE Healthcare) was set in a surface plasmon resonance apparatus (product name: Biacore 3000, manufactured by GE Healthcare), the sensor was stabilized at a flow rate of 10 μL/min of a 4-(2-hydroxyethyl)-1-piperazineethanesulfonic acid (HEPES) buffer solution (20 mM HEPES-HCl, 150 mM NaCl, pH 7.4) for surface plasmon resonance (SPR), and 70 μL of a mixed aqueous solution of 0.2 M 1-(3-dimethylaminopropyl)-3-ethylcarbodiimide (EDC) and 0.04 M N-hydroxysuccinimide (NHS) was added thereto. Then, 300 μL of the sample solution of each of the above cyclic peptides diluted to 0.2 g/L with the HEPES buffer solution was supplied to the sensor chip, blocking treatment was subsequently carried out with an ethanolamine solution, and washing was carried out with a sodium hydroxide aqueous solution, whereby immobilization was carried out. However, only for the cyclic peptide 22, in which the number of lysine residues having an amino group as the immobilizing functional group was 1, the sample solution to be supplied to the sensor chip was set to 5,000 μL instead of 300 μL. Similarly; 70 μL of the mixed aqueous solution of 0.2 M EDC and 0.04 M NHS was added to another flow channel of the same sensor chip without immobilizing the sample, and then blocking treatment and washing treatment were carried out. Hereinafter, the obtained immobilization-treated sensor chip is referred to as an “immobilization-treated sensor chip A”.
After adding human integrin αvβ5 for 10 minutes at 25° C., which was diluted to 30 nM using a HEPES buffer solution to which magnesium chloride was added to 5 mM, in each flow channel of the immobilization-treated sensor chip A prepared in (1) above, the same HEPES buffer solution (containing 5 mM magnesium chloride) was allowed to flow as a running buffer for 30 minutes, and measurement was carried out with Biacore 3000.
Then, a regeneration treatment of removing human integrin αvβ5 was carried out by allowing a 0.5 M EDTA aqueous solution to flow through each flow channel for 10 minutes. Further, the above-described measurement process consisting of adding integrin for 10 minutes, allowing a running buffer to flow for 30 minutes, carrying out measurement with Biacore 3000, and carrying out regeneration treatment with 0.5 M EDTA aqueous solution was carried out in the same manner for 100 nM human integrin αvβ5, 300 nM human integrin αvβ5, and 1,000 nM human integrin αvβ5. Dissociation constant between the cyclic peptide and human integrin αvβ5 was calculated from the difference between the value measured by Biacore 3000 in the flow channel immobilized with the cyclic peptide and the value measured by Biacore 3000 in the flow channel unimmobilized with the cyclic peptide, in a case where each concentration of human integrin αvβ5 was allowed to flow; and the integrin binding property was evaluated according to the following evaluation standards. It is preferable that the evaluation result satisfies the evaluation standard A, B, or C.

[1] = Evaluation of molecule stability (alkali treatment, LC/MS residual rate); format: physicochemical; conditions: 500 μM peptide plus equivalent of 1 M sodium hydroxide, 15° C., 20 minutes, LC/MS peak area
Method: The molecule stability of the cyclic peptide was evaluated by analyzing the alkali-treated cyclic peptide aqueous solution by liquid chromatography mass spectroscopy (LC/MS).
The alkali treatment was carried out by the following method. A 500 μM cyclic peptide aqueous solution was prepared, an equivalent of 1 M sodium hydroxide aqueous solution was added to this aqueous solution, and the resultant mixture was incubated at 15° C. for 20 minutes to obtain an alkali-treated cyclic peptide aqueous solution. The cyclic peptide residual rate was calculated by setting the total area of all peaks of the cyclic peptide before alkali treatment in LC/MS to 100% and determining the proportion of the total area of all peaks in LC/MS of the alkali-treated cyclic peptide aqueous solution, and the molecule stability was evaluated according to the following evaluation standards. It is preferable that the evaluation result satisfies the evaluation standard A, B, or C.
The conditions of the LC/MS used for the evaluation of molecule stability were set as follows. • LC apparatus: Prominence series (pump, column oven, autosampler, detector) (manufactured by Shimadzu Corporation) • MS detector: LC/MS2010EV (manufactured by Shimadzu Corporation) • Column: Cadenza CD-C18, inner diameter 2.0 mm×length 250 mm, particle size: 3 μm (manufactured by Imtakt Corporation) • Eluent A: a solution (pH 3) containing 10 mM ammonium formate as a solute, where the solvent is 100% water. • Eluent B: a solution (pH 3) containing 10 mM ammonium formate as a solute, where the solvent is acetonitrile/water=90/10. • Flow rate: 0.2 mL/min • Injection volume: 4 μL • Gradient: 0% to 30%: Eluent B (0 to 30 minutes), 100%: Eluent B (30 to 40 minutes), 0%: Eluent B (40 to 60 minutes)(B indicates the eluent B) • Column temperature: 45° C. • Ionization method: electrospray ionization (ESI) positive, ESI negative

| Kd (human integrin αvβ5) | SMILES | Molecule stability (cyclic peptide residual rate) [1] |
| --- | --- | --- |
| < 0.05 µM | N=C(N)NCCC[C@@H]1NC(=O)[C@@H]2CCSCC(=O)NCCCC[C@H](NC(=O)[C@H](CC(=O)O)NC(=O)CNC1=O)C(=O)N[C@@H](Cc1ccccc1)C(=O)N[C@H](C(=O)N[C@@H](CCCCN)C(=O)N[C@@H](CCCCN)C(=O)N[C@@H](CCCCN)C(=O)O)CCSCC(=O)N[C@@H](Cc1ccc(O)cc1)C(=O)N2 [Cyclic peptide 25] ({CH2CO}-Y[hCys]RGDKF[hCys]KKK-OH; linker 2-6 via X1; thioether N-8) | A (The residual rate of the cyclic peptide is 70% or more.) |
| < 0.05 µM | CC(C)C[C@@H]1NC(=O)CSCC[C@@H](C(=O)N[C@@H](CCCCN)C(=O)N[C@@H](CCCCN)C(=O)N[C@@H](CCCCN)C(=O)O)NC(=O)[C@H](Cc2ccccc2)NC(=O)[C@@H]2CCCCNC(=O)CSCC[C@H](NC1=O)C(=O)N[C@@H](CCCNC(=N)N)C(=O)NCC(=O)N[C@@H](CC(=O)O)C(=O)N2 [Cyclic peptide 26] ({CH2CO}-L[hCys]RGDKF[hCys]KKK-OH; linker 2-6 via X1; thioether N-8) | A (The residual rate of the cyclic peptide is 70% or more.) |
| < 0.05 µM | C[C@@H](O)[C@@H]1NC(=O)CSCC[C@@H](C(=O)N[C@@H](CCCCN)C(=O)N[C@@H](CCCCN)C(=O)N[C@@H](CCCCN)C(=O)O)NC(=O)[C@H](Cc2ccccc2)NC(=O)[C@@H]2CCCCNC(=O)CSCC[C@H](NC1=O)C(=O)N[C@@H](CCCNC(=N)N)C(=O)NCC(=O)N[C@@H](CC(=O)O)C(=O)N2 [Cyclic peptide 27] ({CH2CO}-T[hCys]RGDKF[hCys]KKK-OH; linker 2-6 via X1; thioether N-8) | A (The residual rate of the cyclic peptide is 70% or more.) |
| < 0.05 µM | CC(C)[C@@H]1NC(=O)CSCC[C@@H](C(=O)N[C@@H](CCCCN)C(=O)N[C@@H](CCCCN)C(=O)N[C@@H](CCCCN)C(=O)O)NC(=O)[C@H](Cc2ccccc2)NC(=O)[C@@H]2CCCCNC(=O)CSCC[C@H](NC1=O)C(=O)N[C@@H](CCCNC(=N)N)C(=O)NCC(=O)N[C@@H](CC(=O)O)C(=O)N2 [Cyclic peptide 28] ({CH2CO}-V[hCys]RGDKF[hCys]KKK-OH; linker 2-6 via X1; thioether N-8) | A (The residual rate of the cyclic peptide is 70% or more.) |
| < 0.05 µM | N=C(N)NCCC[C@@H]1NC(=O)[C@@H]2CCSCC(=O)NCCCC[C@H](NC(=O)[C@H](CC(=O)O)NC(=O)CNC1=O)C(=O)N[C@@H](Cc1ccccc1)C(=O)N[C@H](C(=O)N[C@@H](CCCCN)C(=O)N[C@@H](CCCCN)C(=O)N[C@@H](CCCCN)C(=O)O)CCSCC(=O)N[C@@H](CC(=O)O)C(=O)N2 [Cyclic peptide 29] ({CH2CO}-D[hCys]RGDKF[hCys]KKK-OH; linker 2-6 via X1; thioether N-8) | A (The residual rate of the cyclic peptide is 70% or more.) |
| < 0.05 µM | N=C(N)NCCC[C@@H]1NC(=O)[C@@H]2CCSCC(=O)NCCCC[C@H](NC(=O)[C@H](CC(=O)O)NC(=O)CNC1=O)C(=O)N[C@@H](Cc1ccccc1)C(=O)N[C@H](C(=O)N[C@@H](CCCCN)C(=O)N[C@@H](CCCCN)C(=O)N[C@@H](CCCCN)C(=O)O)CCSCC(=O)N[C@@H](CCC(=O)O)C(=O)N2 [Cyclic peptide 30] ({CH2CO}-E[hCys]RGDKF[hCys]KKK-OH; linker 2-6 via X1; thioether N-8) | A (The residual rate of the cyclic peptide is 70% or more.) |
| < 0.05 µM | CC[C@H](C)[C@@H]1NC(=O)CSCC[C@@H](C(=O)N[C@@H](C)C(=O)N[C@@H](CCCCN)C(=O)N[C@@H](CCCCN)C(=O)N[C@@H](CCCCN)C(=O)O)NC(=O)[C@H](Cc2ccccc2)NC(=O)[C@@H]2CCCCNC(=O)CSCC[C@H](NC1=O)C(=O)N[C@@H](CCCNC(=N)N)C(=O)NCC(=O)N[C@@H](CC(=O)O)C(=O)N2 [Cyclic peptide 35] ({CH2CO}-I[hCys]RGDKF[hCys]AKKK-OH; linker 2-6 via X1; thioether N-8) | A (The residual rate of the cyclic peptide is 70% or more.) |

The next lines start with the molecule.

| SMILES | Kd (human integrin αvβ5) | Molecule stability (cyclic peptide residual rate) [1] |
| --- | --- | --- |
| CC1(C)SCC(=O)N[C@@H](CCC(=O)O)C(=O)N[C@H]2CCCNC(=O)CSCC[C@H](NC(=O)[C@H](CC(=O)O)NC(=O)CNC(=O)[C@H](CCCNC(=N)N)NC2=O)C(=O)N[C@@H](Cc2ccccc2)C(=O)N[C@@H]1C(=O)N[C@@H](CCCCN)C(=O)N[C@@H](CCCCN)C(=O)N[C@@H](CCCCN)C(=O)O [Cyclic peptide 24] ({CH2CO}-E[Orn]RGD[hCys]F[Pen]KKK-OH; linker 2-6 via X2; thioether N-8) | < 0.05 µM | A (The residual rate of the cyclic peptide is 70% or more.) |
| CC[C@H](C)[C@@H]1NC(=O)CSCC[C@@H](C(=O)N[C@@H](CCCCN)C(=O)N[C@@H](CCCCN)C(=O)N[C@@H](CCCCN)C(=O)O)NC(=O)[C@@H]2CCCN2C(=O)[C@@H]2CCCCNC(=O)CSCC[C@H](NC1=O)C(=O)N[C@@H](CCCNC(=N)N)C(=O)NCC(=O)N[C@@H](CC(=O)O)C(=O)N2 [Cyclic peptide 31] ({CH2CO}-I[hCys]RGDKP[hCys]KKK-OH; linker 2-6 via X1; thioether N-8) | 0.05 to 0.1 µM | A (The residual rate of the cyclic peptide is 70% or more.) |
| CC[C@H](C)[C@@H]1NC(=O)CSCC[C@@H](C(=O)N[C@@H](CCCCN)C(=O)N[C@@H](CCCCN)C(=O)N[C@@H](CCCCN)C(=O)O)NC(=O)[C@H](Cc2ccc(O)cc2)NC(=O)[C@@H]2CCCCNC(=O)CSCC[C@H](NC1=O)C(=O)N[C@@H](CCCNC(=N)N)C(=O)NCC(=O)N[C@@H](CC(=O)O)C(=O)N2 [Cyclic peptide 32] ({CH2CO}-I[hCys]RGDKY[hCys]KKK-OH; linker 2-6 via X1; thioether N-8) | 0.05 to 0.1 µM | A (The residual rate of the cyclic peptide is 70% or more.) |
| CC[C@H](C)[C@@H]1NC(=O)CSCC[C@@H](C(=O)N[C@@H](CCCCN)C(=O)N[C@@H](CCCCN)C(=O)N[C@@H](CCCCN)C(=O)O)NC(=O)[C@H](CCCNC(=N)N)NC(=O)[C@H](Cc2ccccc2)NC(=O)[C@@H]2CCCCNC(=O)CSCC[C@H](NC1=O)C(=O)N[C@@H](CCCNC(=N)N)C(=O)NCC(=O)N[C@@H](CC(=O)O)C(=O)N2 [Cyclic peptide 33] ({CH2CO}-I[hCys]RGDKFR[hCys]KKK-OH; linker 2-6 via X1; thioether N-9) | 0.1 to 0.2 µM | A (The residual rate of the cyclic peptide is 70% or more.) |
| CC[C@H](C)[C@@H]1NC(=O)CSCC[C@@H](C(=O)N[C@@H](CCCCN)C(=O)N[C@@H](CCCCN)C(=O)N[C@@H](CCCCN)C(=O)O)NC(=O)[C@H](C)NC(=O)[C@H](Cc2ccccc2)NC(=O)[C@@H]2CCCCNC(=O)CSCC[C@H](NC1=O)C(=O)N[C@@H](CCCNC(=N)N)C(=O)NCC(=O)N[C@@H](CC(=O)O)C(=O)N2 [Cyclic peptide 34] ({CH2CO}-I[hCys]RGDKFA[hCys]KKK-OH; linker 2-6 via X1; thioether N-9) | 0.05 to 0.1 µM | A (The residual rate of the cyclic peptide is 70% or more.) |
